Measured values from PubChem BioAssay AID180 (DTP/NCI, 2004).
Values joined by “and” are separate entries in the source; they are usually repeats but may differ in a detail not shown here. Identical values can stand only once.

System: BDF1 mice, Adenocarcinoma 755 s.c., tumor weight T/C
Assay: NCI In Vivo Anticancer Drug Screen. Data for tumor model Adenocarcinoma 755 (subcutaneous) in B6D2F1 (BDF1) mice
Conditions: endpoint: mean tumor weight, higher = larger tumour
Outline: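 Compound activity was tested in mice carrying transplanted tumors. Survival or tumor size was measured, and each value is the treated-group measurement divided by that of the vehicle-treated control group (T/C).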

[1] = dose: 56.0 mg/kg/injection, schedule: Q01DX011 (sc), vehicle: steriod suspending solution
[2] = dose: 50.0 mg/kg/injection, schedule: Q01DX011 (ip), vehicle: carboxymethylcellulose (CMC)
[3] = dose: 100.0 mg/kg/injection, schedule: Q01DX011 (ip), vehicle: carboxymethylcellulose (CMC)
[4] = dose: 30.0 mg/kg/injection, schedule: Q01DX011 (ip), vehicle: carboxymethylcellulose (CMC)
[5] = dose: 75.0 mg/kg/injection, schedule: Q01DX011 (ip), vehicle: carboxymethylcellulose (CMC)
[6] = dose: 12.5 mg/kg/injection, schedule: Q01DX011 (ip), vehicle: methylcellulose (MC)

SMILES: C[C@]12CCC(=O)C=C1CC[C@H]1[C@@H]3CC[C@](O)(C(=O)CF)[C@@]3(C)C[C@H](O)[C@@]12F
- T/C (dose: 0.87 mg/kg/injection, schedule: Q01DX011 (sc), vehicle: steriod suspending solution): 86 % of control
- T/C (dose: 1.75 mg/kg/injection, schedule: Q01DX011 (sc), vehicle: steriod suspending solution): 68 % of control
- T/C (dose: 3.5 mg/kg/injection, schedule: Q01DX011 (sc), vehicle: steriod suspending solution): 66 % of control and 69 % of control
- T/C (dose: 7.0 mg/kg/injection, schedule: Q01DX011 (sc), vehicle: steriod suspending solution): 29 % of control and 34 % of control and 40 % of control
- T/C (dose: 28.0 mg/kg/injection, schedule: Q01DX011 (sc), vehicle: steriod suspending solution): 9 % of control and 28 % of control
- T/C [1]: 10 % of control and 31 % of control

SMILES: Nc1nc(Nc2ccccc2Cl)cc(=O)[nH]1
- T/C (dose: 15.0 mg/kg/injection, schedule: Q01DX011 (ip), vehicle: methylcellulose (MC)): 119 % of control
- T/C (dose: 62.0 mg/kg/injection, schedule: Q01DX011 (ip), vehicle: methylcellulose (MC)): 95 % of control

SMILES: CC(C)Cn1cnc2c(SCc3ccccc3[N+](=O)[O-])nc(N)nc21
- T/C (dose: 37.5 mg/kg/injection, schedule: Q01DX011 (ip), vehicle: methylcellulose (MC)): 42 % of control
- T/C (dose: 75.0 mg/kg/injection, schedule: Q01DX011 (ip), vehicle: methylcellulose (MC)): 97 % of control
- T/C (dose: 150.0 mg/kg/injection, schedule: Q01DX011 (ip), vehicle: methylcellulose (MC)): 62 % of control
- T/C (dose: 300.0 mg/kg/injection, schedule: Q01DX011 (ip), vehicle: methylcellulose (MC)): 14 % of control

SMILES: COc1ccc(C(=O)OCC2OC(n3cnc4c(=S)nc[nH]c43)C(OC(=O)c3ccc(OC)cc3)C2OC(=O)c2ccc(OC)cc2)cc1 (configuration not stated)
- T/C (dose: 200.0 mg/kg/injection, schedule: Q01DX011 (ip), vehicle: carboxymethylcellulose (CMC)): 28 % of control
- T/C (dose: 400.0 mg/kg/injection, schedule: Q01DX011 (ip), vehicle: carboxymethylcellulose (CMC)): 2 % of control
- T/C (dose: 800.0 mg/kg/injection, schedule: Q01DX011 (ip), vehicle: carboxymethylcellulose (CMC)): 7 % of control

SMILES: CCCn1cnc2c(=S)nc(N)[nH]c21
- T/C (dose: 0.03 mg/kg/injection, schedule: Q01DX011 (ip), vehicle: methylcellulose (MC)): 103 % of control
- T/C (dose: 0.06 mg/kg/injection, schedule: Q01DX011 (ip), vehicle: methylcellulose (MC)): 82 % of control
- T/C (dose: 0.11 mg/kg/injection, schedule: Q01DX011 (ip), vehicle: methylcellulose (MC)): 45 % of control
- T/C (dose: 0.22 mg/kg/injection, schedule: Q01DX011 (ip), vehicle: methylcellulose (MC)): 6 % of control and 7 % of control
- T/C (dose: 0.44 mg/kg/injection, schedule: Q01DX011 (ip), vehicle: methylcellulose (MC)): 8 % of control
- T/C (dose: 0.88 mg/kg/injection, schedule: Q01DX011 (ip), vehicle: methylcellulose (MC)): 4 % of control
- T/C (dose: 1.75 mg/kg/injection, schedule: Q01DX011 (ip), vehicle: methylcellulose (MC)): 4 % of control

SMILES: CC(=O)NCCc1ccccc1
- T/C (dose: 12.5 mg/kg/injection, schedule: Q01DX011 (ip), vehicle: other): 106 % of control
- T/C (dose: 25.0 mg/kg/injection, schedule: Q01DX011 (ip), vehicle: other): 71 % of control
- T/C (dose: 50.0 mg/kg/injection, schedule: Q01DX011 (ip), vehicle: other): 99 % of control
- T/C (dose: 100.0 mg/kg/injection, schedule: Q01DX011 (ip), vehicle: other): 87 % of control
- T/C (dose: 200.0 mg/kg/injection, schedule: Q01DX011 (ip), vehicle: other): 59 % of control
- T/C (dose: 400.0 mg/kg/injection, schedule: Q01DX011 (ip), vehicle: other): 49 % of control

SMILES: N/C(=N\O)c1nsnc1N
- T/C [2]: 85 % of control
- T/C [3]: 71 % of control

SMILES: Nc1nc2c(nc(Br)n2C2OC(CO)C(O)C2O)c(=O)[nH]1 (configuration not stated)
- T/C [4]: 82 % of control
- T/C (dose: 60.0 mg/kg/injection, schedule: Q01DX011 (ip), vehicle: carboxymethylcellulose (CMC)): 43 % of control
- T/C (dose: 120.0 mg/kg/injection, schedule: Q01DX011 (ip), vehicle: carboxymethylcellulose (CMC)): 17 % of control

SMILES: CCCCCCCCCCCCCCCCC(C(=O)O)C(O)(CC(=O)O)C(=O)O (configuration not stated)
- T/C (dose: 19.0 mg/kg/injection, schedule: Q01DX011 (ip), vehicle: carboxymethylcellulose (CMC)): 96 % of control
- T/C (dose: 37.5 mg/kg/injection, schedule: Q01DX011 (ip), vehicle: carboxymethylcellulose (CMC)): 49 % of control
- T/C [5]: 59 % of control

SMILES: Nc1ccc2cc(S(=O)(=O)O)cc(O)c2c1N=Nc1ccc(NC(=O)c2ccc(C(=O)Nc3ccc(N=Nc4c(N)ccc5cc(S(=O)(=O)O)cc(O)c45)c(S(=O)(=O)O)c3)cc2)cc1S(=O)(=O)O
- T/C (dose: 3.0 mg/kg/injection, schedule: Q01DX011 (ip), vehicle: carboxymethylcellulose (CMC)): 100 % of control
- T/C (dose: 7.0 mg/kg/injection, schedule: Q01DX011 (ip), vehicle: carboxymethylcellulose (CMC)): 45 % of control
- T/C (dose: 15.0 mg/kg/injection, schedule: Q01DX011 (ip), vehicle: carboxymethylcellulose (CMC)): 56 % of control
- T/C [4]: 48 % of control

SMILES: Clc1ccc(CNc2ncnc3c2cnn3C2CCCCO2)cc1Cl (configuration not stated)
- T/C [6]: 83 % of control
- T/C (dose: 25.0 mg/kg/injection, schedule: Q01DX011 (ip), vehicle: methylcellulose (MC)): 105 % of control
- T/C (dose: 100.0 mg/kg/injection, schedule: Q01DX011 (ip), vehicle: methylcellulose (MC)): 40 % of control and 61 % of control
- T/C (dose: 200.0 mg/kg/injection, schedule: Q01DX011 (ip), vehicle: methylcellulose (MC)): 23 % of control

SMILES: CN1CCC(CN2c3ccccc3Sc3ccccc32)CC1
- T/C (dose: 120.0 mg/kg/injection, schedule: Q01DX011 (ip), vehicle: methylcellulose (MC)): 23 % of control

SMILES: Cn1c2c(sc1=O)CCC2
- T/C (dose: 88.0 mg/kg/injection, schedule: Q01DX011 (ip), vehicle: methylcellulose (MC)): 54 % of control
- T/C (dose: 175.0 mg/kg/injection, schedule: Q01DX011 (ip), vehicle: methylcellulose (MC)): 80 % of control

SMILES: CC[N+](C)(C)c1ncnc2nc[nH]c12
- T/C (dose: 12.0 mg/kg/injection, schedule: Q01DX011 (ip), vehicle: carboxymethylcellulose (CMC)): 88 % of control
- T/C (dose: 17.0 mg/kg/injection, schedule: Q01DX011 (ip), vehicle: carboxymethylcellulose (CMC)): 80 % of control
- T/C (dose: 25.0 mg/kg/injection, schedule: Q01DX011 (ip), vehicle: carboxymethylcellulose (CMC)): 47 % of control and 52 % of control
- T/C (dose: 37.0 mg/kg/injection, schedule: Q01DX011 (ip), vehicle: carboxymethylcellulose (CMC)): 33 % of control
- T/C [2]: 22 % of control
- T/C [5]: 6 % of control
- T/C [3]: 3 % of control

SMILES: C=CCc1c[nH]c(=O)[nH]c1=O
- T/C (dose: 67.5 mg/kg/injection, schedule: Q01DX011 (ip), vehicle: saline): 99 % of control
- T/C (dose: 125.0 mg/kg/injection, schedule: Q01DX011 (ip), vehicle: saline): 78 % of control
- T/C (dose: 250.0 mg/kg/injection, schedule: Q01DX011 (ip), vehicle: saline): 72 % of control

SMILES: CCCn1cnc2c(SCc3ccccc3F)nc(N)nc21
- T/C (dose: 3.1 mg/kg/injection, schedule: Q01DX011 (ip), vehicle: methylcellulose (MC)): 22 % of control
- T/C (dose: 6.25 mg/kg/injection, schedule: Q01DX011 (ip), vehicle: methylcellulose (MC)): 11 % of control
- T/C [6]: 1 % of control and 5 % of control

SMILES: CC(=O)[C@@]12OC(C)(C)O[C@@H]1C[C@H]1[C@@H]3C[C@H](C)C4=CC(=O)CC[C@]4(C)[C@H]3CC[C@@]12C
- T/C [1]: 28 % of control
- T/C (dose: 62.0 mg/kg/injection, schedule: Q01DX011 (sc), vehicle: steriod suspending solution): 34 % of control
- T/C (dose: 75.0 mg/kg/injection, schedule: Q01DX011 (sc), vehicle: steriod suspending solution): 38 % of control
- T/C (dose: 113.0 mg/kg/injection, schedule: Q01DX011 (sc), vehicle: steriod suspending solution): 46 % of control
- T/C (dose: 125.0 mg/kg/injection, schedule: Q01DX011 (sc), vehicle: steriod suspending solution): 21 % of control
- T/C (dose: 150.0 mg/kg/injection, schedule: Q01DX011 (sc), vehicle: steriod suspending solution): 18 % of control
- T/C (dose: 225.0 mg/kg/injection, schedule: Q01DX011 (sc), vehicle: steriod suspending solution): 24 % of control
- T/C (dose: 250.0 mg/kg/injection, schedule: Q01DX011 (sc), vehicle: steriod suspending solution): 17 % of control
- T/C (dose: 300.0 mg/kg/injection, schedule: Q01DX011 (sc), vehicle: steriod suspending solution): 15 % of control
- T/C (dose: 450.0 mg/kg/injection, schedule: Q01DX011 (sc), vehicle: steriod suspending solution): 35 % of control
- T/C (dose: 600.0 mg/kg/injection, schedule: Q01DX011 (sc), vehicle: steriod suspending solution): 14 % of control
- T/C (dose: 900.0 mg/kg/injection, schedule: Q01DX011 (sc), vehicle: steriod suspending solution): 16 % of control
